For 6 molecules, GI50 and TGI results are on record in PubChem BioAssay (NCI).

Some test systems named below: U251 CNS; SF-295 CNS; MOLT-4 leukemia; SK-MEL-28 melanoma; OVCAR-5 ovarian; SK-MEL-5 melanoma; OVCAR-8 ovarian; HL-60(TB) leukemia; UACC-62 melanoma; UACC-257 melanoma.
What all share (test): NCI-60 cell line screen, 48 h

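All cell lines were grown in 96-well plates and treated with compound for 48 hours. At the GI50, growth is halved. TGI: total growth inhibition.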

On to `NC(=O)c1c(NC(=O)c2ccccc2)sc2c1CCC(=O)C2`, for which the GI50 is 0.955 µM with U251 CNS; 2.69 µM in the experiment on SF-295 CNS; 1.12 µM in the experiment with MOLT-4 leukemia; 2.88 µM with SK-MEL-28 melanoma; 1.77 µM in the experiment with OVCAR-5 ovarian; 1.64 µM with SK-MEL-5 melanoma. Moreover, the GI50 in the experiment with OVCAR-8 ovarian is 1.33 µM; in the experiment with HL-60(TB) leukemia, 0.378 µM; in the experiment with UACC-62 melanoma it was 0.723 µM; in the experiment on UACC-257 melanoma, 2.21 µM. The TGI with U251 CNS worked out at 26.7 µM; in the experiment on SF-295 CNS, 7.94 µM; with MOLT-4 leukemia, 8.3 µM; in the experiment with SK-MEL-28 melanoma it was 19.2 µM; in the experiment with OVCAR-5 ovarian it was 11 µM; with SK-MEL-5 melanoma it was 3.04 µM. Also, the TGI in the experiment on OVCAR-8 ovarian is > 100 µM; in the experiment on HL-60(TB) leukemia, 3.57 µM; in the experiment on UACC-62 melanoma it was 2.51 µM; in the experiment on UACC-257 melanoma, 6.13 µM.
Regarding `O=C1CC2(CCC(O)(c3ccc4ccccc4c3)C(C(=O)c3ccc4ccccc4c3)C2)C(=O)c2ccccc2N1` (stereo not given), the TGI in the experiment with U251 CNS, with SF-295 CNS, in the experiment on MOLT-4 leukemia, in the experiment with SK-MEL-28 melanoma, with OVCAR-5 ovarian and with SK-MEL-5 melanoma was > 100 µM each time. For the same molecule, the TGI in the experiment on OVCAR-8 ovarian, in the experiment on HL-60(TB) leukemia, in the experiment with UACC-62 melanoma and in the experiment on UACC-257 melanoma was > 100 µM each time.
As for `C[n+]1c(/C=C/c2c(O)ccc3ccccc23)ccc2ccccc21`, the GI50 in the experiment with U251 CNS is 5.43 µM; in the experiment with SF-295 CNS it was 5.82 µM; with MOLT-4 leukemia, 7.01 µM; in the experiment with SK-MEL-28 melanoma it was 7.91 µM; in the experiment on OVCAR-5 ovarian, 7.19 µM; in the experiment on SK-MEL-5 melanoma, 4.82 µM. In addition, the GI50 in the experiment on OVCAR-8 ovarian is 5.2 µM; in the experiment on HL-60(TB) leukemia, 5.7 µM; in the experiment on UACC-62 melanoma it was 5.77 µM; with UACC-257 melanoma, 7.17 µM. In addition, the TGI with U251 CNS turned out to be 13.8 µM; in the experiment on SF-295 CNS, 13.5 µM; with MOLT-4 leukemia, 23.4 µM; in the experiment on SK-MEL-28 melanoma, 15.1 µM; with OVCAR-5 ovarian, 15.2 µM; with SK-MEL-5 melanoma it was 10.7 µM. Further, the TGI in the experiment on OVCAR-8 ovarian came to 14.9 µM; in the experiment with HL-60(TB) leukemia it was 13.4 µM; in the experiment on UACC-62 melanoma, 12.2 µM; in the experiment on UACC-257 melanoma, 14.9 µM.
Turning to `COc1cc2c(cc1OC)C(C(c1ccccc1)c1ccccc1)N(C)CC2` (stereo not given), the TGI was > 100 µM in the experiment on U251 CNS; > 100 µM in the experiment on SF-295 CNS; > 100 µM with MOLT-4 leukemia; > 100 µM in the experiment on SK-MEL-28 melanoma; > 100 µM in the experiment on OVCAR-5 ovarian; 47.6 µM in the experiment on SK-MEL-5 melanoma. Besides, the TGI is > 100 µM in the experiment on OVCAR-8 ovarian, > 100 µM in the experiment with HL-60(TB) leukemia, > 100 µM in the experiment on UACC-62 melanoma and > 86.9 µM in the experiment with UACC-257 melanoma.
As for `C[N+](C)([O-])CCOc1cc2c(c3ccccc13)-c1ccccc1C2=O`, the TGI in the experiment on U251 CNS is 25.8 µM; with SF-295 CNS, > 72.1 µM; in the experiment with MOLT-4 leukemia it was > 35.3 µM; in the experiment with SK-MEL-28 melanoma, 39.1 µM; with OVCAR-5 ovarian, 59.2 µM; in the experiment with SK-MEL-5 melanoma, 28.7 µM. Also, the TGI in the experiment on OVCAR-8 ovarian was > 93.1 µM; in the experiment with HL-60(TB) leukemia, 35.5 µM; in the experiment with UACC-62 melanoma, 30.2 µM; in the experiment with UACC-257 melanoma, 16.9 µM.
As to `O=c1oc2cc(O)ccc2c(O)c1C(c1ccccc1)c1c(O)c2ccc(O)cc2oc1=O`, the TGI with U251 CNS, in the experiment with SF-295 CNS, in the experiment with MOLT-4 leukemia, in the experiment on SK-MEL-28 melanoma, in the experiment on OVCAR-5 ovarian and in the experiment on SK-MEL-5 melanoma was > 100 µM in each case. Further, the TGI in the experiment on OVCAR-8 ovarian, with HL-60(TB) leukemia, with UACC-62 melanoma and in the experiment on UACC-257 melanoma was > 100 µM each time.
